Reference: patent publication US20050219340A1, “Actinic ray curable ink composition, image forming method and ink-jet recording apparatus using the same” (KONICA MINOLTA MEDICAL & GRAPHIC, INC., priority 2004, published 2005)

Assay: physchem
Method: P(O/W), as described in the present invention, refers to the partition coefficient between 1-octanol and water and is as defined for the value which is treated as information to judge accumulativeness in the bodies of fish and shellfish, in the course of registration of new compounds, to conform in the Law Concerning Examination and Regulation of Manufacture etc. of Chemical Substances (a Japanese law), and is represented by the formula below; P(O/W)=CO/CW wherein CO represents the concentration (in mg/L) of a compound in the 1-octanol layer, while CW represents the concentration (in mg/L) of the above compound in the water layer.

logP | Compound
0.12 | COc1ccc([S+](c2ccc(C)cc2)c2ccc(OC)cc2)cc1 [Compound S-2]
0.15 | COc1ccc([S+](c2ccc(OC)cc2)c2ccc(Oc3ccc(C)cc3)cc2)cc1 [Compound S-4]
0.12 | COc1ccc([S+](c2ccc(C)cc2)c2ccc(C)cc2)cc1 [Compound S-3]
0.1 | COc1ccc([S+](c2ccc(OC)cc2)c2ccc(OC)cc2)cc1 [Compound S-1]
